What was measured:
[1] = molecular target: Phospho-KIT (Tyr719) in GIST430 cells (Homo sapiens, UniProt P10721); experiment: GIST430 KIT Western Blot; type: cell-based; settings: 4 hours, read-out: pKIT suppression by western blot analysi GIST430
Protocol: (§1) GIST48, GIST430, and GIST882 cells were obtained from J. Fletcher (Brigham and Women's Hospital, Boston, Mass.). GIST T1 cells were obtained from B. Rubin (Cleveland Clinic, Cleveland, Ohio) and Professor Takahiro Taguchi (Kochi Medical School, Nankoku, Kochi, Japan). […] GIST430 cells were grown in Ham's F10 medium supplemented with 15% characterized fetal bovine serum (Invitrogen, Carlsbad, Calif.), 30 mg/L bovine pituitary extract (BD Biosciences, San Jose, Calif.), 0.5% Mito+ serum extender (BD Biosciences, San Jose, Calif.), 1 unit/mL penicillin G, 1 μg/ml streptomycin, and 0.29 mg/mL L-glutamine at 37° C., 5% CO2, 95% humidity. GIST T1 cells were grown in DMEM medium supplemented with 10% characterized fetal bovine serum (Invitrogen, Carlsbad, Calif.), 1 unit/mL penicillin G, 1 ng/ml streptomycin, and 0.29 mg/mL L-glutamine at 37° C., 5% CO2, and 95% humidity. Cells were allowed to expand until reaching 70-95% confluence at which point they were subcultured or harvested for assay use.
(§2) One hundred fifty thousand cells were added per well in a 24-well tissue-culture treated plate. Cells were then incubated overnight at 37° C., 5% CO2, 95% humidity. Medium was aspirated, cells were washed with PBS, and serum-free Ham's F10 medium was added. A serial dilution of test compound was added to plates containing cells and plates were incubated for 4 hours at 37° C., 5% CO2, 95% humidity. Cells were washed with PBS, then lysed. Cell lysates were separated by SDS-PAGE and transferred to PVDF. Phospho-KIT (Tyr719) was detected using an antibody from Cell Signaling Technology (Beverly, Mass.), ECL Plus detection reagent (GE Healthcare, Piscataway, N.J.) and a Molecular Devices Storm 840 phosphorimager in fluorescence mode. Blots were stripped and probed for total KIT using an antibody from Santa Cruz Biotech (Santa Cruz, Calif.). IC50 values were calculated using Prism software (Graphpad, San Diego, Calif.).

[2] = molecular target: Phospho-KIT (Tyr719) in GIST48 cells (Homo sapiens, UniProt P10721); experiment: GIST48 KIT Western Blot; type: cell-based; settings: 4 hours, read-out: pKIT suppression by western blot analysi GIST48
Sequence of Phospho-KIT (Tyr719) in GIST48 cells (P10721 whole entry V560D/D820A, form open): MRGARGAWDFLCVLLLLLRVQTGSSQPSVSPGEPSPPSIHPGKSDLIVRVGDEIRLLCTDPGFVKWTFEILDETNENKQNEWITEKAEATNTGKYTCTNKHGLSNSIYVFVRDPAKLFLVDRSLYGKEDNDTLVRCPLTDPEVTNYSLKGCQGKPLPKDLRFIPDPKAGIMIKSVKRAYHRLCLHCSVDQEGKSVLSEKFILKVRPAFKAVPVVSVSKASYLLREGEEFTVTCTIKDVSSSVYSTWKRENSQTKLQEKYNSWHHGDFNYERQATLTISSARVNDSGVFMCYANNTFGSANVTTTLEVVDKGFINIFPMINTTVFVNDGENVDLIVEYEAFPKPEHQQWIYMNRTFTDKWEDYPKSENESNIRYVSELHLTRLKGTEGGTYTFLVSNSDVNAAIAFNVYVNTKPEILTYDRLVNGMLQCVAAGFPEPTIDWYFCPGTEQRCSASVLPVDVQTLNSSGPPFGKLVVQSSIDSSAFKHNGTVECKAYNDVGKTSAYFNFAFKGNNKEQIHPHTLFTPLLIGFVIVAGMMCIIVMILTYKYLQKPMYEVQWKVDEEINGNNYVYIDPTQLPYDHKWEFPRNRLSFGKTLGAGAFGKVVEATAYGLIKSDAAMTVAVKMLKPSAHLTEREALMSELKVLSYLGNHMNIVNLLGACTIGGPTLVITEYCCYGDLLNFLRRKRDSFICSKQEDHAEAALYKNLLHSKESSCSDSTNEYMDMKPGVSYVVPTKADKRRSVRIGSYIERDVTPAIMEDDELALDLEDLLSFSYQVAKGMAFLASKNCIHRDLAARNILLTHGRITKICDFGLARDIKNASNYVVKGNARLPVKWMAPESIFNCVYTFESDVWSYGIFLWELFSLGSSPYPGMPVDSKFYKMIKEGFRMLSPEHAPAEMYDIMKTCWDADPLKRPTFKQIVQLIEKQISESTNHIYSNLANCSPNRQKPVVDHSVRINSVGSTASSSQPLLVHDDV
Protocol: as §1
as §2, with “Two” for “One”, “RPMI1640” for “Ham's F10”

Sequence of Phospho-KIT (Tyr719) in GIST430 cells (P10721 with tags, fused parts or gaps DEL560-576/V654A, form open): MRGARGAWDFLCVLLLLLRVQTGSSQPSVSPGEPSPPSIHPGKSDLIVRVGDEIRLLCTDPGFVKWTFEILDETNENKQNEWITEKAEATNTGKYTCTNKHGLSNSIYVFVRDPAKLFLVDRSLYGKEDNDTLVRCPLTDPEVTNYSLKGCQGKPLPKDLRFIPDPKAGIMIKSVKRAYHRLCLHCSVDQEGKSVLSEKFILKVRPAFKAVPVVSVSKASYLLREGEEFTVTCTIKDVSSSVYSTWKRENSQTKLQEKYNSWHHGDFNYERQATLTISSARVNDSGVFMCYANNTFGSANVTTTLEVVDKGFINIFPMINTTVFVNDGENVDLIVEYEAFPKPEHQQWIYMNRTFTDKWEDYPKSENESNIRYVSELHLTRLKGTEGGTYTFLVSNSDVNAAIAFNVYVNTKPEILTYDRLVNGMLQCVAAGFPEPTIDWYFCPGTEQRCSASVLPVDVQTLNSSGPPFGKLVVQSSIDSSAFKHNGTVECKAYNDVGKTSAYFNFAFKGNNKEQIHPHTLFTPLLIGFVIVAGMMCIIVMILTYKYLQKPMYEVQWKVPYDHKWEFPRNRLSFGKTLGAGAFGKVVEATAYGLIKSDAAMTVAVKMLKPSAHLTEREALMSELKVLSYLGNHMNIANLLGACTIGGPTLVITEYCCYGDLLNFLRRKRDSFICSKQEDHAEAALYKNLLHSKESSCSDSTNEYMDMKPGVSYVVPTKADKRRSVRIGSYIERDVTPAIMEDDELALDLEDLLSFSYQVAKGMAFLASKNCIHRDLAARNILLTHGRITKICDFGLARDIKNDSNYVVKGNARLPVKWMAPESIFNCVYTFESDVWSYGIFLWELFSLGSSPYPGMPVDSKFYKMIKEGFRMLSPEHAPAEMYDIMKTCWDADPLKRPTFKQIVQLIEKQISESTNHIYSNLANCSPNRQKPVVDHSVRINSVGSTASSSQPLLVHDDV

SMILES	IC50 [1] [nM]	IC50 [2] [nM]
CCn1c(=O)c(-c2cc(NC(=O)Nc3ccccc3)c(F)cc2Cl)cc2cnc(NC(=O)N3CC[C@@H](N(C)C)C3)cc21 [Example 84, (R)—N-(3-(2-chloro-4-fluoro-5-(3-phenylureido)phenyl)-1-ethyl-2-oxo-1,2-dihydro-1,6-naphthyridin-7-yl)-3-(dimethylamino)pyrrolidine-1-carboxamide]	10 to 100	10 to 100
CCn1c(=O)c(-c2cc(NC(=O)Nc3ccccc3F)c(F)cc2Cl)cc2cnc(NC)cc21 [Example 25, 1-[4-chloro-5-(1-ethyl-7-methylamino-2-oxo-1,2-dihydro-[1,6]naphthyridin-3-yl)-2-fluoro-phenyl]-3-(2-fluoro-phenyl)-urea]	10 to 100	10 to 100
CCn1c(=O)c(-c2cc(NC(=O)Nc3ccccc3)c(F)cc2Cl)cc2cnc(NCCOC)cc21 [Example 27, 1-(4-chloro-5-(1-ethyl-7-(2-methoxyethylamino)-2-oxo-1,2-dihydro-1,6-naphthyridin-3-yl)-2-fluorophenyl)-3-phenylurea]	10 to 100	10 to 100
CCn1c(=O)c(-c2cc(NC(=O)Nc3cccc(F)c3)c(F)cc2F)cc2cnc(NC)cc21 [Example 15, 1-(5-(1-ethyl-7-(methylamino)-2-oxo-1,2-dihydro-1,6-naphthyridin-3-yl)-2,4-difluorophenyl)-3-(3-fluorophenyl)urea]	10 to 100	10 to 100
CCn1c(=O)c(-c2cc(NC(=O)Nc3cc(F)cc(F)c3)c(F)cc2Cl)cc2cnc(NC)cc21 [Example 55, 1-(4-chloro-5-(1-ethyl-7-(methylamino)-2-oxo-1,2-dihydro-1,6-naphthyridin-3-yl)-2-fluorophenyl)-3-(3,5-difluorophenyl)urea]	10 to 100	> 1000
CCn1c(=O)c(-c2cc(NC(=O)Nc3ccccc3)c(F)cc2Cl)cc2cnc(NC(=O)N3CC(N(C)C)C3)cc21 [Example 102, N-(3-(2-chloro-4-fluoro-5-(3-phenylureido)phenyl)-1-ethyl-2-oxo-1,2-dihydro-1,6-naphthyridin-7-yl)-3-(dimethylamino)azetidine-1-carboxamide]	10 to 100	10 to 100
CNc1cc2c(cn1)cc(-c1cc(NC(=O)Nc3cccc(F)c3)c(F)cc1C)c(=O)n2C(C)C [Example 41, 1-(2-fluoro-5-(1-isopropyl-7-(methylamino)-2-oxo-1,2-dihydro-1,6-naphthyridin-3-yl)-4-methylphenyl)-3-(3-fluorophenyl)urea]	10 to 100	100 to 1000
CCn1c(=O)c(-c2cc(NC(=O)Nc3csc4ccccc34)c(F)cc2Cl)cc2cnc(NC)cc21 [Example 32]	< 10	< 10
CCn1c(=O)c(-c2cc(NC(=O)Nc3ccccc3)c(F)cc2Br)cc2cnc(N)cc21 [Example 57, 1-(5-(7-amino-1-ethyl-2-oxo-1,2-dihydro-1,6-naphthyridin-3-yl)-4-bromo-2-fluorophenyl)-3-phenylurea]	10 to 100	100 to 1000
CCn1c(=O)c(-c2cc(NC(=O)Nc3cc(F)ccc3F)c(F)cc2Cl)cc2cnc(NC)cc21 [Example 68, 1-(4-chloro-5-(1-ethyl-7-(methylamino)-2-oxo-1,2-dihydro-1,6-naphthyridin-3-yl)-2-fluorophenyl)-3-(2,5-difluorophenyl)urea]	10 to 100	100 to 1000
CCn1c(=O)c(-c2cc(NC(=O)Nc3csc4ccccc34)c(F)cc2C)cc2cnc(NC)cc21 [Example 59, 1-(benzo[b]thiophen-3-yl)-3-(5-(1-ethyl-7-(methylamino)-2-oxo-1,2-dihydro-1,6-naphthyridin-3-yl)-2-fluoro-4-methylphenyl)urea]	10 to 100	10 to 100
CCn1c(=O)c(-c2cc(NC(=O)Nc3ccccc3)c(F)cc2Cl)cc2cnc(NC(=O)N3CC(O)C3)cc21 [Example 81, N-(3-(2-chloro-4-fluoro-5-(3-phenylureido)phenyl)-1-ethyl-2-oxo-1,2-dihydro-1,6-naphthyridin-7-yl)-3-hydroxyazetidine-1-carboxamide]	10 to 100	10 to 100
CNc1cc2c(cn1)cc(-c1cc(NC(=O)Nc3cccc(F)c3)c(F)cc1Cl)c(=O)n2C(C)C [Example 77, 1-(4-chloro-2-fluoro-5-(1-isopropyl-7-(methylamino)-2-oxo-1,2-dihydro-1,6-naphthyridin-3-yl)phenyl)-3-(3-fluorophenyl)urea]	10 to 100	10 to 100
CCn1c(=O)c(-c2cc(NC(=O)Nc3ccccc3)c(F)cc2C)cc2cnc(NC(=O)N3CCC3)cc21 [Example 110, N-(1-ethyl-3-(4-fluoro-2-methyl-5-(3-phenylureido)phenyl)-2-oxo-1,2-dihydro-1,6-naphthyridin-7-yl)azetidine-1-carboxamide]		< 10

Continued, values first:

IC50 [1] [nM]	IC50 [2] [nM]	SMILES
10 to 100	100 to 1000	CCn1c(=O)c(-c2cc(NC(=O)Nc3cccc(F)c3)c(F)cc2Cl)cc2cnc(N)cc21 [Example 20, 1-(5-(7-amino-1-ethyl-2-oxo-1,2-dihydro-1,6-naphthyridin-3-yl)-4-chloro-2-fluorophenyl)-3-(3-fluorophenyl)urea]
10 to 100	< 10	CC(=O)Nc1cc2c(cn1)cc(-c1cc(NC(=O)Nc3ccccc3)c(F)cc1Cl)c(=O)n2C(C)C [Example 86, N-(3-(2-chloro-4-fluoro-5-(3-phenylureido)phenyl)-1-isopropyl-2-oxo-1,2-dihydro-1,6-naphthyridin-7-yl)acetamide]
100 to 1000	100 to 1000	CCn1c(=O)c(-c2cc(NC(=O)Nc3ccccc3)c(F)cc2F)cc2cnc(NC)cc21 [Example 16, 1-(5-(1-ethyl-7-(methylamino)-2-oxo-1,2-dihydro-1,6-naphthyridin-3-yl)-2,4-difluorophenyl)-3-phenylurea]
< 10	10 to 100	CCn1c(=O)c(-c2cc(NC(=O)Nc3cccc(F)c3)c(F)cc2Cl)cc2cnc(NC)cc21 [Example 24, 1-[4-chloro-5-(1-ethyl-7-methylamino-2-oxo-1,2-dihydro-[1,6]naphthyridin-3-yl)-2-fluoro-phenyl]-3-(3-fluoro-phenyl)-urea]
10 to 100	10 to 100	CCn1c(=O)c(-c2cc(NC(=O)Nc3cccc(F)c3F)c(F)cc2Cl)cc2cnc(NC)cc21 [Example 4, 1-(4-chloro-5-(1-ethyl-7-(methylamino)-2-oxo-1,2-dihydro-1,6-naphthyridin-3-yl)-2-fluorophenyl)-3-(2,3-difluorophenyl)urea]
100 to 1000	100 to 1000	CCn1c(=O)c(-c2cc(NC(=O)Nc3ccccc3)c(F)cc2F)cc2cnc(NCCOC)cc21 [Example 36, 1-(5-(1-ethyl-7-(2-methoxyethylamino)-2-oxo-1,2-dihydro-1,6-naphthyridin-3-yl)-2,4-difluorophenyl)-3-phenylurea]
< 10	10 to 100	CCn1c(=O)c(-c2cc(NC(=O)Nc3cccc4ccccc34)c(F)cc2C)cc2cnc(NC)cc21 [Example 1, 1-(5-(1-ethyl-7-(methylamino)-2-oxo-1,2-dihydro-1,6-naphthyridin-3-yl)-2-fluoro-4-methylphenyl)-3-(naphthalen-1-yl)urea]
10 to 100		CCn1c(=O)c(-c2cc(NC(=O)Nc3ccccc3)ccc2Cl)cc2cnc(NC)cc21 [Example 33, 1-(4-chloro-3-(1-ethyl-7-(methylamino)-2-oxo-1,2-dihydro-1,6-naphthyridin-3-yl)phenyl)-3-phenylurea]

Source: patent US8940756B2, “Dihydronaphthyridines and related compounds useful as kinase inhibitors for the treatment of proliferative diseases” (Deciphera Pharmaceuticals, Inc., priority 2012, dated 2015)
